System: AKT-mTOR-p70S6K pathway
Assay: Downstream signaling in macrophages after drug washout and MCSF exposure (Western blot)
Assay type: cell-based
Details: 4 hours drug, washout 7 h or 48 h, MCSF 2 h

Question: `FC(F)(F)c1ccc(CNc2ccc(Cc3c[nH]c4ncc(Cl)cc34)cn2)cn1` [PLX3397] was tested. Which AKT-mTOR-p70S6K downstream signaling did it give?
Answer: Its AKT-mTOR-p70S6K downstream signaling is “not by BLZ945 and PLX3397”.

Reference: patent US10736968B2, “Cellular signalling inhibitors, their formulations and methods thereof” (INVICTUS ONCOLOGY PVT. LTD., priority 2016, dated 2020)
